Assay [1] addresses T1, SARS-CoV-2 PLpro (nsp3 1564–1878) (Severe acute respiratory syndrome coronavirus 2, UniProt P0DTD1). The assay is described as follows: biochemical. Further details: FRET-quenched peptide (Pro3) cleavage by PLpro, 10 min pre-incubation, slope over 20 min, normalised to no-compound control. As to conditions: low concentration screen, read-out: % of control remaining.
The target in assay [2] is T1, SARS-CoV-2 PLpro (nsp3 1564–1878). As to the kind of experiment: biochemical. Also on record: FRET-quenched peptide (Pro3) cleavage by PLpro, 10 min pre-incubation, slope over 20 min, normalised to no-compound control. The conditions noted are these: high concentration screen, read-out: % of control remaining.

Structures can show the parent of a compound that is named as a salt. Where two headings read alike, the source gives them in different places.

As to `CN1CCN2c3ccccc3Cc3ccccc3C2C1` (centres unmarked) [Mianserin hydrochloride], in assay [1] (Well no.=874), the remaining activity at 1.25 µM was 107%. Moreover, the remaining activity at 3.75 µM in assay [2] (Well no.=874) was found to be 106%.

For the compound `CN1CCN2c3ccccc3Cc3ccccc3C2C1` (centres unmarked) [Mianserin.HCl], the remaining activity at 1.25 µM in assay [1] (Well no.=1540) was found to be 100%. Further, the remaining activity at 3.75 µM in assay [2] (Well no.=1540) was 101%.

Consider `COCC(=O)O[C@]1(CCN(C)CCCc2nc3ccccc3[nH]2)CCc2cc(F)ccc2[C@@H]1C(C)C` [Mibefradil dihydrochloride], for which the remaining activity at 1.25 µM in assay [1] (Well no.=882) is 99.7%. The remaining activity at 3.75 µM in assay [2] (Well no.=882) came out at 91.3%.

`Clc1ccc(COC(Cn2ccnc2)c2ccc(Cl)cc2Cl)c(Cl)c1` (centres unmarked) [Miconazole nitrate]: the remaining activity at 1.25 µM in assay [1] (Well no.=4666) is 102%. Besides, the remaining activity at 3.75 µM in assay [2] (Well no.=4666) was 103%.

As for `Clc1ccc(COC(Cn2ccnc2)c2ccc(Cl)cc2Cl)c(Cl)c1` (centres unmarked) [Miconazole], the remaining activity at 1.25 µM in assay [1] (Well no.=1965) was 86.9%. The remaining activity at 3.75 µM in assay [2] (Well no.=1965) was 92.2%.

`CC#C[C@]1(O)CC[C@H]2[C@@H]3CCC4=CC(=O)CCC4=C3[C@@H](c3ccc(N(C)C)cc3)C[C@@]21C` [Mifepristone]: the remaining activity at 1.25 µM in assay [1] (Well no.=795) came out at 103%; in assay [1] (Well no.=2206), 93.5%; in assay [1] (Well no.=6285), 97.9%. Further, the figures for the remaining activity at 3.75 µM in assay [2] (Well no.=795), in assay [2] (Well no.=2206) and in assay [2] (Well no.=6285) were 96.3%, 97.2% and 99.7%, respectively.

As to `OCCN1C[C@H](O)[C@@H](O)[C@H](O)[C@H]1CO` [Miglitol], the remaining activity at 1.25 µM in assay [1] (Well no.=8340) turned out to be 92.9%. In addition, in assay [2] (Well no.=8340), the remaining activity at 3.75 µM came to 92.7%.

Take `CCCCN1C[C@H](O)[C@@H](O)[C@H](O)[C@H]1CO` [Miglustat]: the remaining activity at 1.25 µM in assay [1] (Well no.=2252) was found to be 97.5%. For the same compound, the remaining activity at 3.75 µM in assay [2] (Well no.=2252) worked out at 95.8%.

Regarding `Cc1[nH]c(=O)c(C#N)cc1-c1ccncc1` [Milrinone], the remaining activity at 1.25 µM turned out to be 101% in assay [1] (Well no.=832) and 95.5% in assay [1] (Well no.=2150). In addition, the remaining activity at 3.75 µM in assay [2] (Well no.=832) was 101%; in assay [2] (Well no.=2150), 97.1%.

`CCCCCCCCCCCCCCCCOP(=O)([O-])OCC[N+](C)(C)C` [Miltefosine]: the remaining activity at 1.25 µM in assay [1] (Well no.=1767) came to 101%. For the same compound, in assay [2] (Well no.=1767), the remaining activity at 3.75 µM is 100%.

For `CN(C)c1ccc(O)c2c1C[C@H]1C[C@H]3[C@H](N(C)C)C(O)=C(C(N)=O)C(=O)[C@@]3(O)C(O)=C1C2=O` [Minocycline hydrochloride], the remaining activity at 1.25 µM in assay [1] (Well no.=797) was 104%. Also, in assay [2] (Well no.=797), the remaining activity at 3.75 µM was 102%.

With `CN(C)c1ccc(O)c2c1C[C@H]1C[C@H]3[C@H](N(C)C)C(O)=C(C(N)=O)C(=O)[C@@]3(O)C(O)=C1C2=O` [Minocycline], the remaining activity at 1.25 µM in assay [1] (Well no.=1995) stood at 103%. The remaining activity at 3.75 µM in assay [2] (Well no.=1995) is 103%.

As to `Nc1cc(N2CCCCC2)nc(N)[n+]1[O-]` [Minoxidil], the results for the remaining activity at 1.25 µM in assay [1] (Well no.=1070) and in assay [1] (Well no.=1808) were 93.8% and 89.4%, respectively. Also, the results for the remaining activity at 3.75 µM in assay [2] (Well no.=1070) and in assay [2] (Well no.=1808) were 96.2% and 90.5%, respectively.

On to `Nc1nc(CC(=O)Nc2ccc(CCNC[C@H](O)c3ccccc3)cc2)cs1` [Mirabegron (YM178)], for which the remaining activity at 1.25 µM in assay [1] (Well no.=4652) came out at 99.3%. In addition, the remaining activity at 3.75 µM in assay [2] (Well no.=4652) was determined as 97.1%.

As for `Nc1nc(CC(=O)Nc2ccc(CCNC[C@H](O)c3ccccc3)cc2)cs1` [Mirabegron], in assay [1] (Well no.=6273), the remaining activity at 1.25 µM is 107%. Further, the remaining activity at 3.75 µM in assay [2] (Well no.=6273) was determined as 116%.

As to `O=C(O)[C@H]1CCCN1C(=O)CCCCC(=O)N1CCC[C@@H]1C(=O)O` [Miridesap], in assay [1] (Well no.=8078), the remaining activity at 1.25 µM is 100%. For the same compound, the remaining activity at 3.75 µM in assay [2] (Well no.=8078) came out at 97.4%.

Take `CN1CCN2c3ncccc3Cc3ccccc3C2C1` (centres unmarked) [Mirtazapine]: in assay [1] (Well no.=6564), the remaining activity at 1.25 µM was determined as 106%. In addition, the remaining activity at 3.75 µM in assay [2] (Well no.=6564) stood at 106%.

For `CO[C@H](C(=O)[C@@H](O)[C@@H](C)O)[C@@H]1Cc2cc3cc(O[C@H]4C[C@@H](O[C@@H]5C[C@@H](O)[C@H](O)[C@@H](C)O5)[C@H](O)[C@@H](C)O4)c(C)c(O)c3c(O)c2C(=O)[C@H]1O[C@H]1C[C@@H](O[C@@H]2C[C@@H](O)[C@@H](O[C@@H]3C[C@](C)(O)[C@H](O)[C@@H](C)O3)[C@@H](C)O2)[C@H](O)[C@@H](C)O1` [Mithramycin A], in assay [1] (Well no.=3411), the remaining activity at 1.25 µM is 96.9%. Further, the remaining activity at 3.75 µM in assay [2] (Well no.=3411) was determined as 101%.

Regarding `O=C(O)[C@H](CC(=O)N1C[C@H]2CCCC[C@H]2C1)Cc1ccccc1` [Mitiglinide calcium], in assay [1] (Well no.=4888), the remaining activity at 1.25 µM was 95.5%. In addition, the remaining activity at 3.75 µM in assay [2] (Well no.=4888) amounted to 96.8%.

Regarding `CO[C@@]12[C@H](COC(N)=O)C3=C(C(=O)C(C)=C(N)C3=O)N1C[C@@H]1N[C@@H]12` [Mitomycin C], the remaining activity at 1.25 µM in assay [1] (Well no.=1672) turned out to be 110%; in assay [1] (Well no.=3563), 98.9%; in assay [1] (Well no.=7364), 98.5%. Further, the remaining activity at 3.75 µM in assay [2] (Well no.=1672) turned out to be 110%; in assay [2] (Well no.=3563) it was 100%; in assay [2] (Well no.=7364), 102%.

For the compound `O=C1c2c(O)ccc(O)c2C(=O)c2c(NCCNCCO)ccc(NCCNCCO)c21` [Mitoxantrone HCl], the remaining activity at 1.25 µM in assay [1] (Well no.=4904) is 93.4%. Besides, in assay [2] (Well no.=4904), the remaining activity at 3.75 µM was found to be 91.1%.

In the case of `O=C1c2c(O)ccc(O)c2C(=O)c2c(NCCNCCO)ccc(NCCNCCO)c21` [Mitoxantrone], the remaining activity at 1.25 µM is 100% in assay [1] (Well no.=1028) and 104% in assay [1] (Well no.=1997). For the same compound, the remaining activity at 3.75 µM in assay [2] (Well no.=1028) turned out to be 101%; in assay [2] (Well no.=1997), 103%.

`NC(=O)c1ncn([C@@H]2O[C@H](CO)[C@@H](O)[C@H]2O)c1O` [Mizoribine]: the remaining activity at 1.25 µM in assay [1] (Well no.=876) turned out to be 105%. In addition, the remaining activity at 3.75 µM in assay [2] (Well no.=876) is 107%.

As for `O=C(NCCN1CCOCC1)c1ccc(Cl)cc1` [Moclobemide], in assay [1] (Well no.=4640), the remaining activity at 1.25 µM amounted to 99.1%. Also, the remaining activity at 3.75 µM in assay [2] (Well no.=4640) amounted to 98.5%.

On to `CCOC(=O)[C@H](CCc1ccccc1)N[C@@H](C)C(=O)N1Cc2cc(OC)c(OC)cc2C[C@H]1C(=O)O` [Moexipril (hydrochloride)], for which, in assay [1] (Well no.=8028), the remaining activity at 1.25 µM stood at 98.4%. Also, the remaining activity at 3.75 µM in assay [2] (Well no.=8028) amounted to 97.8%.

Turning to `CCOC(=O)[C@H](CCc1ccccc1)N[C@@H](C)C(=O)N1Cc2cc(OC)c(OC)cc2C[C@H]1C(=O)O` [Moexipril HCl], in assay [1] (Well no.=4760), the remaining activity at 1.25 µM came to 97.7%. In addition, the remaining activity at 3.75 µM in assay [2] (Well no.=4760) stood at 97.7%.

As to `CCOC(=O)CC(=O)N1CCSC1COc1ccccc1OC` (centres unmarked) [Moguisteine], in assay [1] (Well no.=4931), the remaining activity at 1.25 µM was found to be 98.7%. Also, the remaining activity at 3.75 µM in assay [2] (Well no.=4931) was found to be 95.6%.

Values taken from article PMC8286840, “Identifying SARS-CoV-2 antiviral compounds by screening for small molecule inhibitors of Nsp3 papain-like protease” (Biochemical Journal, 2021).
